The source of these data is ChEMBL document CHEMBL1201862, “PubChem BioAssay data set” (2004).

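Cultured in 96-well plates, cells were exposed to test compound for 48 hours across five concentrations. GI50 = concentration required for 50% inhibition of growth.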 Active and inactive are the calls of the source. Cut-off read from the data, not from the text of the source: active = GI50 up to about 1.1 µM and inactive = higher.

Among the test systems are A498; CCRF-CEM; COLO 205; HOP-62; HOP-92; HT-29; Hs-578T; MCF7; MOLT-4; Malme-3M; NCI-H226; NCI-H522; OVCAR-5; PC-3; RPMI-8226; SK-MEL-28; SK-MEL-2; SNB-75; SW-620; UO-31.
Common to all, as to experiment: NCI tumour cell line growth inhibition, 48 h

Turning to `CC1CCN(CC(=O)N2c3ccccc3Sc3cc4ccccc4cc32)CC1`, the GI50 in the assay with A498 was > 100 µM (inactive); in the assay on CCRF-CEM, 84.7 µM (inactive); in the assay on COLO 205, > 100 µM (inactive); in the assay with HOP-62, > 100 µM (inactive); with HOP-92, > 100 µM (inactive); with HT-29, 48 µM (inactive). Moreover, the GI50 with Hs-578T is > 100 µM (inactive); in the assay on MCF7, 47.5 µM (inactive); in the assay with MOLT-4, 36.4 µM (inactive); in the assay on Malme-3M, > 100 µM (inactive); with NCI-H226, > 100 µM (inactive); in the assay on NCI-H522 it was > 100 µM (inactive). Also, the GI50 in the assay with OVCAR-5, with PC-3, in the assay with RPMI-8226, in the assay with SK-MEL-28, in the assay with SK-MEL-2 and with SNB-75 was > 100 µM (inactive) each time. Also, the GI50 with SW-620 and in the assay on UO-31 was > 100 µM (inactive) each time.
With `CCCCCCCCCC[C@@H](O)[C@H]1CC[C@H]([C@H]2CC[C@H]([C@H](O)CCCCCCCCCC[C@@H]3CC(CC(C)=O)C(=O)O3)O2)O1` (stereo not given in full), the GI50 in the assay with A498 was > 28.5 µM (inactive); with CCRF-CEM, 9.23 µM (inactive); with COLO 205, 13 µM (inactive); in the assay on HOP-62, 46.5 µM (inactive); with HOP-92 it was > 50 µM (inactive); in the assay with HT-29 it was 4.41 µM (inactive). Moreover, the GI50 is 7.19 µM (inactive) in the assay with Hs-578T; 13.8 µM (inactive) in the assay on MCF7; 3.77 µM (inactive) in the assay on MOLT-4; 16 µM (inactive) in the assay on Malme-3M; 23.8 µM (inactive) in the assay on NCI-H226; 7.87 µM (inactive) in the assay with NCI-H522. In addition, the GI50 with OVCAR-5 is > 50 µM (inactive); in the assay on PC-3, 21.7 µM (inactive); in the assay with RPMI-8226, 0.231 µM (active); in the assay with SK-MEL-28, > 50 µM (inactive); with SK-MEL-2, > 40.9 µM (inactive); in the assay on SNB-75, > 50 µM (inactive). Besides, the figures for the GI50 with SW-620 and in the assay with UO-31 were 26.2 µM (inactive) and 23.7 µM (inactive), respectively.
With `Nc1nc2c(ncn2Cc2ccccc2CO)c(=O)[nH]1`, the GI50 in the assay on A498, in the assay on CCRF-CEM, with COLO 205, in the assay on HOP-62, in the assay with HOP-92 and with HT-29 was > 100 µM (inactive) throughout. For the same compound, the GI50 with Hs-578T, with MCF7, with MOLT-4, with Malme-3M, with NCI-H226 and in the assay with NCI-H522 was > 100 µM (inactive) each time. Further, the GI50 in the assay on OVCAR-5, with PC-3, in the assay with RPMI-8226, in the assay with SK-MEL-28, in the assay on SK-MEL-2 and in the assay with SNB-75 was > 100 µM (inactive) each time. The GI50 in the assay with SW-620 and in the assay on UO-31 was > 100 µM (inactive) throughout.
For the compound `COc1cc2oc3cc(=O)cc4oc(-c5ccccc5)cc(c2c2c1CCC(c1ccccc1)O2)c43` (stereo not given), the GI50 in the assay with A498 was 50.4 µM (inactive); in the assay with CCRF-CEM, 61 µM (inactive); in the assay on COLO 205 it was 18.8 µM (inactive); in the assay with HOP-62, 41 µM (inactive); in the assay with HOP-92 it was > 100 µM (inactive); with HT-29 it was 20.9 µM (inactive). Moreover, the GI50 is 85.9 µM (inactive) in the assay with Hs-578T; 7.66 µM (inactive) in the assay with MCF7; 8.95 µM (inactive) in the assay with MOLT-4; 67.3 µM (inactive) with Malme-3M; > 100 µM (inactive) with NCI-H226; 34.8 µM (inactive) in the assay on NCI-H522. Further, the GI50 in the assay on OVCAR-5 is 56 µM (inactive); in the assay on PC-3, 47.8 µM (inactive); with RPMI-8226, 3.34 µM (inactive); with SK-MEL-28, 40.7 µM (inactive); with SK-MEL-2 it was 33 µM (inactive); in the assay with SNB-75 it was 79.1 µM (inactive). Besides, the values for the GI50 in the assay with SW-620 and in the assay with UO-31 were 67.1 µM (inactive) and 55.6 µM (inactive), respectively.
As to `CCOC(=O)C(=Cc1ccccc1Br)C(=O)OCC`, the GI50 in the assay on A498 is 2.03 µM (inactive); with CCRF-CEM, 9.23 µM (inactive); in the assay on COLO 205, 2.8 µM (inactive); in the assay on HOP-62 it was 2.37 µM (inactive); with HOP-92, 3.4 µM (inactive); in the assay on HT-29 it was 3.36 µM (inactive). In addition, the GI50 was 3.4 µM (inactive) in the assay on Hs-578T; 1.55 µM (inactive) with MCF7; 0.32 µM (active) in the assay with MOLT-4; 3.48 µM (inactive) with Malme-3M; 3.51 µM (inactive) with NCI-H226; 1.64 µM (inactive) in the assay on NCI-H522. The GI50 with OVCAR-5 was 6.5 µM (inactive); in the assay on PC-3, 2.93 µM (inactive); in the assay with RPMI-8226 it was 2.23 µM (inactive); in the assay on SK-MEL-28, 2.4 µM (inactive); in the assay on SK-MEL-2 it was 2.14 µM (inactive); in the assay with SNB-75, 5.58 µM (inactive). Besides, the GI50 in the assay with SW-620 was 1.97 µM (inactive); in the assay with UO-31, 2.25 µM (inactive).
As for `CC(C)(C)c1cc(C(C)(C)C)c(P=C(Cl)Cl)c(C(C)(C)C)c1` (stereo not given), the GI50 with A498, in the assay with CCRF-CEM, in the assay with COLO 205, with HOP-62, with HOP-92 and in the assay on HT-29 was > 100 µM (inactive) in each case. Also, the GI50 in the assay with Hs-578T, in the assay on MCF7, in the assay with MOLT-4, with Malme-3M, in the assay on NCI-H226 and in the assay on NCI-H522 was > 100 µM (inactive) in each case. Moreover, the GI50 in the assay with OVCAR-5, in the assay on PC-3, in the assay with RPMI-8226, with SK-MEL-28, in the assay with SK-MEL-2 and in the assay on SNB-75 was > 100 µM (inactive) each time. Moreover, the GI50 in the assay on SW-620 and in the assay with UO-31 was > 100 µM (inactive) each time.
With `C[C@@H](C[C@@H](O)[C@H](O)C(C)(C)O)[C@H]1CC=C2[C@]3(C)[C@H](O)C[C@H]4C(C)(C)[C@H](O)CC[C@]4(C)[C@H]3CC[C@@]21C`, the GI50 is 15.2 µM (inactive) with A498; 18 µM (inactive) in the assay with CCRF-CEM; 13.7 µM (inactive) in the assay on COLO 205; 15 µM (inactive) in the assay on HOP-62; 13.9 µM (inactive) in the assay with HOP-92; 13.4 µM (inactive) with HT-29. Moreover, the GI50 in the assay on Hs-578T is 22.5 µM (inactive); with MCF7, 17.2 µM (inactive); in the assay with MOLT-4, 11.1 µM (inactive); with Malme-3M, 14.3 µM (inactive); in the assay on NCI-H226, 20.7 µM (inactive); in the assay with NCI-H522 it was 14 µM (inactive). Also, the GI50 with OVCAR-5 is 19.2 µM (inactive); with PC-3, 14.3 µM (inactive); in the assay with RPMI-8226 it was 13.9 µM (inactive); in the assay on SK-MEL-28 it was 14.4 µM (inactive); with SK-MEL-2, 14 µM (inactive); in the assay on SNB-75 it was 17.6 µM (inactive). In addition, the GI50 with SW-620 is 17.3 µM (inactive); with UO-31, 15.4 µM (inactive).
With `c1ccc(/N=C2\c3ccsc3/C(=N/c3ccccc3)c3ccsc32)cc1`, the GI50 in the assay on A498 is 8.11 µM (inactive); in the assay on CCRF-CEM, 2.97 µM (inactive); with COLO 205, 2.63 µM (inactive); with HOP-62, 1.63 µM (inactive); with HOP-92, 2.61 µM (inactive); with HT-29, 2.67 µM (inactive). Besides, the GI50 with Hs-578T was 2.24 µM (inactive); with MCF7, 2.62 µM (inactive); with MOLT-4, 1.9 µM (inactive); with Malme-3M it was 0.344 µM (active); in the assay on NCI-H226, 5.57 µM (inactive); with NCI-H522, 1.98 µM (inactive). Further, the GI50 in the assay with OVCAR-5 was 1.67 µM (inactive); in the assay with PC-3, 2.16 µM (inactive); with RPMI-8226, 1.94 µM (inactive); in the assay on SK-MEL-28, 2.01 µM (inactive); with SK-MEL-2, 1.6 µM (inactive); in the assay with SNB-75 it was 1.2 µM (inactive). Besides, the GI50 with SW-620 was 1.89 µM (inactive); in the assay with UO-31, 2.09 µM (inactive).
As for `C=C1C(=O)O[C@H]2C3C(=C(C)CC[C@@H]12)C(=O)[C@@H]1OC31C` (stereo not given in full), the GI50 in the assay with A498 was 11.4 µM (inactive); with CCRF-CEM, 0.318 µM (active); in the assay on COLO 205, 1.2 µM (inactive); in the assay with HOP-62, 14.8 µM (inactive); with HOP-92, 2.93 µM (inactive); in the assay on HT-29 it was 1.66 µM (inactive). Besides, the GI50 with Hs-578T was 3.03 µM (inactive); in the assay with MCF7, 1.8 µM (inactive); in the assay with MOLT-4, 1.36 µM (inactive); with Malme-3M it was 2.2 µM (inactive); in the assay with NCI-H226 it was 7.48 µM (inactive); in the assay with NCI-H522, 1.53 µM (inactive). The GI50 is 10.4 µM (inactive) in the assay on OVCAR-5; 2.69 µM (inactive) with PC-3; 0.746 µM (active) in the assay on RPMI-8226; 2.34 µM (inactive) with SK-MEL-28; 4.48 µM (inactive) in the assay on SK-MEL-2; 2.38 µM (inactive) with SNB-75. Besides, the GI50 was 0.685 µM (active) in the assay with SW-620 and 4.89 µM (inactive) in the assay with UO-31.
